Values quoted from earlier work as cited in patent US20220151922A1, “Medication for Alleviating Parkinson's Symptoms and Method of Administering” (priority 2020, published 2022).

How the values were obtained:
[1] = test system: Pseudomonas aeruginosa biofilms
[2] = test system: bacteria, bacterial spores, and viruses; conditions: versus chlorine bleach

## OCl [HOCl, Hypochlorous acid]
[1]
  removing Pseudomonas aeruginosa biofilms: effectiveness
[2]
  effectiveness of killing bacteria, bacterial spores, and viruses relative to chlorine bleach: 100 times
